Measurements: patent US20180161433A1, “SIZE TUNABLE MICROBIAL MIMETICS FOR IMMUNOTHERAPY OF THYROID CARCINOMAS AND SOLID TUMORS” (priority 2017, published 2018)
Entries after “also recorded” stand apart in the source; their conditions may differ. Strand notation (5' to 3'): a small letter for the sugar, then the base; units joined by * are phosphorothioate-linked, units joined directly phosphodiester-linked; [ ] holds rarer units or linkages, { } end groups; capitals alone tell only the bases. r = 2'-OH (RNA)

What was measured:
[1] = test system: Human peripheral blood mononuclear cells (PBMCs); assay: Induced cytokine secretion by PBMCs (ELISA); type: cell-based; conditions: for cytokine secretion when complexed to the CAL2 peptide: complexed to CAL2, versus the component on its own; for cytokine secretion, component on its own: individual component, 24 hours
Method: (§1) FIG. 10 is bar graph showing the induced secretion of IL-6 by PBMCs exposed to PolyIC, RNA248, DNA4, DNA10, PolyIC complexed with SEQ. ID NO. 36 (CAL2), RNA248 complexed with SEQ. ID NO. 36, DNA4 complexed with SEQ. ID NO. 36, DNA10 complexed with SEQ. ID NO. 36, DNA4 and RNA248 complexed with SEQ. ID NO. 36, Pam2CSK4-conjugated SEQ. ID NO. 36 complexed with DNA4 and SEQ. ID NO. 36 alone. Each well contained ˜300,000 fresh PBMCs in a total volume of 100 μL of RPMI medium. Solutions of SEQ. ID NO. 36, PolyIC, DNA4, DNA10, Pam2CSK4-conjugated SEQ. ID NO. 36 were all pre-mixed to concentrations of 50 ug/mL (for each peptide reagent) and then added to wells in volumes of 100 uL, such that each well contained a 200 uL volume of PBMCs and reagents. Wells were run in triplicate and the mean value is indicated.
as §1, with “FIG. 11” for “FIG. 10”, “of IL-10” for “of IL-6”
FIG. 12 is a bar graph showing the induced secretion of IL-12 by PBMCs exposed to PolyIC, RNA248, DNA4, DNA10, PolyIC complexed with SEQ. ID NO. 36 (CAL2), RNA248 complexed with SEQ. ID NO. 36, DNA4 complexed with SEQ. ID NO. 36, DNA10 complexed with SEQ. ID NO. 36, DNA4 and RNA248 complexed with SEQ. ID NO. 36, Pam2CSK4-conjugated SEQ. ID NO. 36 complexed with DNA4 and SEQ. ID NO. 36 alone. Each well contained ˜300,000 fresh PBMCs in a total volume of 100 μL of RPMI medium. Solutions of SEQ. ID NO. 36, PolyIC, DNA4, DNA10, Pam2CSK4-conjugated SEQ. ID NO. 36 were all pre-mixed to concentrations of 50 ug/mL (for each peptide reagent) and then added to wells in volumes of 100 uL, such that each well contained a 200 uL volume of PBMCs and reagents. Wells were run in triplicate and the mean value is indicated.
FIG. 13 is a bar graph showing the induced secretion of IL-15 by PBMCs exposed to PolyIC, RNA248, DNA4, DNA10, PolyIC complexed with SEQ. ID NO. 36 (CAL2), RNA248 complexed with SEQ. ID NO. 36, DNA4 complexed with SEQ. ID NO. 36, DNA10 complexed with SEQ. ID NO. 36, DNA4 and RNA248 complexed with SEQ. ID NO. 36, Pam2CSK4-conjugated SEQ. ID NO. 36 complexed with DNA4 and SEQ. ID NO. 36 alone. Each well contained ˜300,000 fresh PBMCs in a total volume of 100 μL of RPMI medium. Solutions of SEQ. ID NO. 36, PolyIC, DNA4, DNA10, Pam2CSK4-conjugated SEQ. ID NO. 36 were all pre-mixed to concentrations of 50 ug/mL (for each peptide reagent) and then added to wells in volumes of 100 uL, such that each well contained a 200 uL volume of PBMCs and reagents. Wells were run in triplicate and the mean value is indicated.
as §1, with “FIG. 14” for “FIG. 10”, “is a” for “is”, “of IFN-α” for “of IL-6”, “reagents. […]” for “reagents. Wells were run in triplicate and the mean value is indicated.”

DNA4/RNA248 = assay: MM complex stability by gel electrophoresis; type: physicochemical; conditions: for complex formation with DNA4/RNA248: disappearance of free DNA4/RNA248 at sufficient peptide concentrations
Method: FIG. 9 is an image generated from a gel electrophoresis experiment (20 V/cm), whereby SEQ. ID NO. 36 (1 mg/mL) was mixed with DNA4/RNA248 (1 mg/mL) at ratios of 1:4 (Lane #2), 1:2 (Lane #3), 1:1 (Lane #4), 2:1 (Lane #5), and 4:1 (Lane #6) SEQ. ID NO. 36 to DNA4/RNA248. For reference, only DNA4/RNA248 was placed in Lane #1. The DNA4/RNA248 mixture travels in the gel away from the negative electrode (top) due its inherent negative charge.
Given the importance of forming stable complexes of antigenic cargo with immune-stimulatory molecules, the stability of MM was characterized using gel electrophoresis. MM were formed by mixing CAL2 (SEQ. ID NO. 36) with […] at varying ratios. […] The experiment was repeated for several other peptides, including SEQ. ID NOS. 34 and 42. […] Furthermore, the intensity of each band decreased as concentration of peptide increased. The presence of the linker sequence, RRHRKRR (SEQ. ID NO. 64), was determined to be critical for stable complexation. Separately, solutions of MM were tested after sitting at room temperature for 2 weeks yielding nearly identical results.

[2] = test system: metastatic iodine-refractory differentiated thyroid cancer (DTC); conditions: cited from earlier work
[3] = test system: activated circulating CTLs; conditions: PD-1+ and LAG-3+ gated flow cytometry; cited from earlier work
[4] = 25 μg/mL, 24 hours, 300,000 PBMCs per well

5′-TCGTCGGTTTCGGCGCGCGCCG-3′ (DNA, all phosphorothioate, methylation of C not given here; further chemistry not fully specified) [DNA4]
induced secretion of IL-12 [1, 4]: does not induce secretion
induced secretion of IL-15 [1, 4]: does not induce secretion
cytokine secretion when complexed to the CAL2 peptide [1]: marked increase
cytokine secretion, component on its own ([1]; 25 μg/mL): minimal

5′-TTCGGCGCGCGCGCGCGCGCGCCGTT-3′ (DNA, all phosphorothioate, methylation of C not given here; further chemistry not fully specified) [DNA10]
cytokine secretion when complexed to the CAL2 peptide [1]: marked increase
cytokine secretion, component on its own ([1]; 25 μg/mL): minimal

5′-guuggugguugugugagcgu-3′ (rG*rU*rU*rG*rG*rU*rG*rG*rU*rU*rG*rU*rG*rU*rG*rA*rG*rC*rG*rU) [RNA248]
cytokine secretion when complexed to the CAL2 peptide [1]: marked increase
cytokine secretion, component on its own ([1]; 25 μg/mL): minimal; also recorded: very minimal

34 (RRHRKRRLSTCMLGTYTQDFNKFHTFPQTAIRRHRKRR; targeting calcitonin) [compound 34]
complex formation with DNA4/RNA248 (DNA4/RNA248): stable complexes were formed

42 (RIPVKWTAIESLFDHRRHRKRR; targeting RETM918T) [compound 42]
complex formation with DNA4/RNA248 (DNA4/RNA248): stable complexes were formed

COc1cc2nccc(Oc3ccc(NC(=O)NC4CC4)c(Cl)c3)c2cc1C(N)=O [lenvatinib]
overall survival benefits [2]: marginal
progression free survival [2]: improved

CNC(=O)c1cc(Oc2ccc(NC(=O)Nc3ccc(Cl)c(C(F)(F)F)c3)cc2)ccn1 [sorafenib]
overall survival benefits [2]: marginal
progression free survival [2]: improved

RRHRKRRLSTCMLGTYTQDFNKFHTFPQTAI (targeting calcitonin) [SEQ. ID NO. 36]
cytokine secretion, component on its own ([1]; 25 μg/mL): very minimal
nucleotide bands in gel (DNA4/RNA248; SEQ. ID NO. 36 to DNA4/RNA248 2:1 (Lane #5) and 4:1 (Lane #6), 20 V/cm, FIG. 9): no nucleotide bands are seen
free DNA4/RNA248 in gel (DNA4/RNA248; peptide to DNA4/RNA248 ratios exceeding 2:1, electric field of 20 V/cm): no free DNA4/RNA248 could be visualized

B1: PEGylated IL-10: PEGylated IL-10 given to patients (protein, UniProt P22301 19-178, looked up)
Interleukin-10: SPGQGTQSENSCTHFPGNLPNMLRDLRDAFSRVKTFFQMKDQLDNLLLKESLLEDFKGYLGCQALSEMIQFYLEEVMPQAENQDPDIKAHVNSLGENLKTLRLRLRRCHRFLPCENKSKAVEQVKNAFNKLQEKGIYKAMSEFDIFINYIEAYMTMKIRN
modifications: PEGylated
numbers of activated circulating CTLs [3]: increased
